Broadly, the IC50 is the point on the concentration scale where inhibition reaches its midpoint. Lower therefore signals greater potency in that assay.

Test [1] concerns the target T1, 5-HT1a (Homo sapiens, UniProt P08908).
T1 sequence (P08908 1-422): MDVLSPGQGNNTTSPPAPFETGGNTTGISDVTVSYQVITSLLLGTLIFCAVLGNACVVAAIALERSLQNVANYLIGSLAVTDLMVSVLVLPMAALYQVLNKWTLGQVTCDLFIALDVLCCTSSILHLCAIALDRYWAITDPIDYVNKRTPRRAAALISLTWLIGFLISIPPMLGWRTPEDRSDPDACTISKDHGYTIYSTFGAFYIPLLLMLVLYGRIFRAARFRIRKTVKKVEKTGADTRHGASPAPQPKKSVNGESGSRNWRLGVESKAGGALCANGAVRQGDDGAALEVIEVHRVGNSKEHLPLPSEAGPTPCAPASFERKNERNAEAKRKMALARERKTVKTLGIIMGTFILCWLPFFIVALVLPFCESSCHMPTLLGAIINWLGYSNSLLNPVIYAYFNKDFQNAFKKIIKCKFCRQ
The test is described as follows: biochemical. It counts as binding.

Test [2] relates to α1. The test is described as follows: α1 IC50. The test is classed as binding.

With `Oc1ccc2c(c1)OC(CNCc1ccccc1)CC2` (centres unmarked) [Example 1f, 2-(Benzylamino-methyl)-chroman-7-ol], the half-inhibitory concentration (IC50) in test [1] stood at 104 nM; in test [2] it was 1140 nM. Turning to `Oc1ccc2c(c1)OC(CNCCCCc1ccccc1)CC2` (centres unmarked) [Example 1m, 2-[(4-Phenyl-butylamino)-methyl]-chroman-7-ol], in test [2], it took 80 nM to reach half-maximal inhibition (IC50). The same measure, in the same setting: next, `c1ccc(CNCC2CCc3ccccc3O2)cc1` (centres unmarked) [reference compound]: 630 nM.

With `Fc1ccc(CNCC2CCc3ccccc3O2)cc1` (centres unmarked) [reference compound], the IC50 in test [2] came to 1280 nM.

For the origin of these results see patent publication US5670667A, “Chroman-2-ylmethylamino derivatives” (American Home Products Corporation, priority 1996, dated 1997).
